We go through 5 molecules from patent US20100093611A1, “COMPOUNDS AND METHODS FOR TREATING OR PREVENTING AUTOIMMUNE DISEASES” (priority 2007, published 2010).

One data set has as its system IFN-α signaling pathway. In words: High-Throughput Integrated Transcriptional Screening (HITS), qPCR of IFN-α signature gene set in THP-1 cells. The class given is cell-based, human. As to conditions: compound 10 μM, 100 IU/ml IFN-α 4 h, a gene inhibited by more than 50% gets its maximum score, scores added, hit if greater than 50% of maximum. The protocol: The unique gene expression signature of the IFN-α signaling pathway was established in THP-1 cells by comparing the gene profiles of the fully activated IFNα pathway to the basal gene expression. THP-1 cells were stimulated either with 100 IU/ml IFN-α, 100 IU/ml IFN-γ, or 10 ng/ml TNF-α to generate the activated pathway gene signatures.
In one embodiment, the compounds of Table 1 were used to identify different mechanisms of action as identified from primary screening. If a gene is inhibited by more than 50% then it receives its maximum score (all or none type of scoring).
THP-1 cells seeded at 8×10^5 cells/ml were treated with either compound (10 μM final concentration) or vehicle control (0.1% DMSO) for 30 minutes prior to a four hour stimulation with 100 IU/ml IFN-α or PBS. Plates were incubated at 37° C. in a humidified incubator. Cell lysis and RNA isolation were carried out according to the manufacturer's instructions (TurboCapture mRNA Kit, Qiagen Inc.). PCR primer pairs were designed for each of the genes identified through the global gene expression analysis using Primer 3 based method (see below for primer sequences). Each primer was evaluated for the efficient production of a single band of appropriate size in the presence of template RNA and the lack of distinct amplification products in a non-template control. Real time PCR reactions were carried out in SYBR green master mix (Quanta biosciences) on ABI9700 thermocyclers.
We used the house keeping gene, GAPDH, as the normalization control for the IFN-α gene signature set to correct the overall variability in the qPCR based HITS process. The corrected profiles were then normalized to the basal gene expression levels determined by using the vehicle only treatments. We subtracted the vehicle only control gene value from the test compound gene profiles, gene per gene (see FIG. 1).
A general note: Quantitative PCR measures a nucleic acid by following its amplification.

The test system of a further data set is IP-10. In words: IFN-α induced IP-10 secretion from human monocytes. The class given is cell-based. As to conditions: 500 IU/ml IFN-α, 48 h (FIG. 6A). The protocol:
(§1) Freshly isolated monocytes were treated with 500 IU/ml IFN-α with or without indicated compounds for 48 h. Supernatants were collected and MCP-1 and IP-10 levels were analyzed by Searchlight Inc. Percentage inhibition represents inhibition of the upregulation of chemokine induced by IFN-α compared to the vehicle control. Panel A: Effect of compounds on IP-10 secretion. Panel B: Effect of compounds on MCP-1 secretion. Each bar represents the average+/−SEM of three independent experiments. Panel C: IKK2 inhibitor IV blocked IFN-α induced IP-10 protein level in vivo. Female NZBW/F1 mice were treated with either antibody (i.p. injection 30 mg/kg) or IKK2 inhibitor (45 mg/kg BID) as described in materials and methods. Adenovirus-IFN-a (1×10^10 viral particles) was administrated i.v. at time 0. Samples were collected 6 h post-stimulation, IP-10 protein level was measured by ELISA. Data representative of two experiments.
(§2) Multiple chemokines, including monocyte chemo-attractant protein-1 (MCP-1) and activated T cell chemokine interferon inducible protein 10 (IP-10) regulate leukocytes migration and infiltration into inflammated organs^34. Expression of MCP-1 and IP-10 are elevated in serum of SLE patients^34, 35 and in monocytes of healthy donors stimulated in vitro by IFN-α^36. Consequently, the effect of Apicidin 1a, IKK2 inhibitor IV, and JAK inhibitors in IP-10 and MCP-1 expression induced by IFN-α from human monocytes was examined.
(§3) For monocyte differentiation assays, human monocytes were isolated from the blood of healthy donors according to manufactory's instructions (Miltenyi Biotec Inc; Auburn Calif.). 5×10^5 freshly prepared monocytes were pre-incubated with compounds or vehicle control for 30 min. […] Cell surface protein were stained with FITC-labeled anti-CD80, PE-labeled anti-CD123, PEcy7 labeled anti-CD38, APC cy7 labeled MHC class II (all BD, San Jose, Calif.) and analyzed on a FACS Calibur flow cytometer (BD). Cytokine and chemokine levels in supernatants from monocyte differentiation assays were measured using searchlight human cytokine array (Pierce Inc, Woburn, Mass.). […]

The subject of a further data set is MCP-1. The experiment in a line: IFN-α induced MCP-1 secretion from human monocytes. The class given is cell-based. As to conditions: 500 IU/ml IFN-α, 48 h (FIG. 6B). The protocol:
as §1, §2, §3

Data set [1] concerns SLE-associated gene signature as induced by SLE serum. The experiment in a line: SLE serum-induced IFN-α gene signature in freshly isolated monocytes (HITS qPCR). The format is cell-based, human. From the text:
RNA from lysed cells was examined by qPCR analysis in HITS assay. […] Each bar represents the average+/−SEM of three independent experiments using serum from different SLE patients.
Stimulation of healthy donor PBMCs with serum isolated from SLE patients induces the up-regulation of IFN-α pathway-associated genes (Interfon-induced genes, IFIGs), such as MX1^31. Furthermore, expression of IFIG correlates with disease severity and organ involvement^31, 32. To further evaluate the role of small molecular inhibitors on the type I IFN gene signature, freshly isolated monocytes stimulated with 50% lupus serum were used in HITS assays. […] Importantly, these experiments were performed with SLE serum from patients with well characterized biochemical profiles.
SLE patient and control serum were purchased from Bioreclamation (Hicksville, N.Y.). IFN-α 2a was obtained from PBL Biomedical laboratories (Piscataway, N.J.). Fresh PBMCs from healthy donor were prepared by Ficoll-hypaque fraction according to the manufactory's instruction. Cells were cultured at 2×10^5 cells/0.1 ml in 96-well flat-bottomed plates in culture medium.
To determine the effect of compounds on gene expression, compounds and vehicle controls were pre-incubated with cells for 30 min at 37° C. before stimulation with 50% lupus serum or 100 IU/ml IFN-α 2a were incubated with PBMC. After 6 h stimulation, cells were lysed in Qiagen 2XTCL lysis buffer followed by HITS analysis (see FIG. 2).

Data set [2] relates to CD80, CD123 and CD38 cell surface expression on monocytes. The experiment in a line: IFN-α induced primary human monocyte activation/differentiation, cell surface markers by FACS. The format is cell-based. To be noted: 500 IU/ml IFN-α, 48 h, FACS (FIG. 5). On the procedure: Freshly isolated monocytes from healthy donor were pre-incubated with compounds or vehicle control for 0.5 hour before stimulation with 500 IU/ml IFN-α. Cell surface expression of CD80, CD123 and CD38 was evaluated by FACS 48 h post-stimulation. Each bar represents the average+/−SEM of three independent experiments.
Since deregulated differentiation of DCs induced by IFN-α may be a critical contributing factor in SLE^13, the impact of Apicidin 1a, IKK2 inhibitor IV, and JAK inhibitors in DC differentiation was examined. Human monocytes were stimulated with IFN-α and the expression of CD38 CD80 and CD123 differentiation markers was monitored^33.
For monocyte differentiation assays, human monocytes were isolated from the blood of healthy donors according to manufactory's instructions (Miltenyi Biotec Inc; Auburn Calif.). 5×10^5 freshly prepared monocytes were pre-incubated with compounds or vehicle control for 30 min. Cells were then incubated in RPMI 1640 medium (Invitrogen, Carlsbad, Calif.) including 10% fetal calf serum (Invitrogen) supplemented with 500 IU/ml IFN-α 2a for 48 hr. Cell surface protein were stained with FITC-labeled anti-CD80, PE-labeled anti-CD123, PEcy7 labeled anti-CD38, APC cy7 labeled MHC class II (all BD, San Jose, Calif.) and analyzed on a FACS Calibur flow cytometer (BD). Cytokine and chemokine levels in supernatants from monocyte differentiation assays were measured using searchlight human cytokine array (Pierce Inc, Woburn, Mass.). (see FIG. 5)

In data set [3] the test system is freshly isolated monocytes. In words: Cytotoxicity at the concentration used in the SLE serum monocyte assay. The class given is cell-based, human. As to conditions: 1 μm.

Turning to `O=C(CCCCCN1C(=O)c2cccc3cccc(c23)C1=O)NO` [Compound 3, scriptaid], in the data set with IFN-α signaling pathway, the “HTS Score” value was 0.88.
On to `CC(/C=C/C(=O)NO)=C\[C@@H](C)C(=O)c1ccc(N(C)C)cc1` [Compound 4, Trichostatin A], for which the “HTS Score” value with IFN-α signaling pathway is given as 1.
Regarding `CC(C)(C)c1nc2c3ccc(F)cc3c3c(=O)[nH]ccc3c2[nH]1` [Compound 7, JAK Inhibitor I], in the data set with IP-10, the “Expression of IP-10 induced by IFN-α” value was “block the expression of IP-10”. For the same molecule, the “MCP-1 expression induced by IFN-α” value in the data set with MCP-1 is “restricted to the highest dose”. Moreover, in data set [1] (1 μm, monocytes stimulated with 50% SLE patient serum, mean of six genes vs vehicle control), the “Percentage inhibition of the six most robustly induced IFN-α signature genes induced by SLE serum” value was 60%. Further, in data set [1] (freshly isolated monocytes, dose dependent (FIG. 4)), the “Upregulation of the six most robustly induced IFN-α signature gene set by 50% lupus serum (in words)” value was “blocked the upregulation”. Further, in data set [2], the CD38 expression entry was “dose-dependent inhibition”, the CD80 expression result is “dose-dependent inhibition” and the CD123 expression entry is on record as “dose-dependent inhibition”. The “HTS Score” value in the data set with IFN-α signaling pathway was 0.9. Besides, in data set [3], the Cytotoxicity result is on record as “did not exhibit cytotoxicity”.
For the molecule `C=CC(=O)C1=CC2C=CC=CC2C=C1` (stereo not shown) [Compound 8, JAK3 Inhibitor V], the “HTS Score” value in the data set on IFN-α signaling pathway was 0.79.
As for Oxamflatin [Compound 1], the “HTS Score” value in the data set on IFN-α signaling pathway is 1.
